These results are taken from US9957298B2, “Peptides as oxytocin agonists” (Hoffmann-La Roche Inc., priority 2014, dated 2018).

Starred links: 1 amine or outer side, 2 acyl side, 3 side chain; linkers in the order of their positions; H or OH if unused. Positions of bridges follow the written chain, without caps; N, C: chain ends. Non-standard residues stand in square brackets, D forms with d. Residues, ends and D or L forms follow the SMILES beside them. Cha = N[C@@H](CC1CCCCC1)C(=O)O; Phg = N[C@H](C(=O)O)c1ccccc1; Suc = O=C(CCC(=O)[*:2])[*:1]; NcPrGly = O=C(O)CNC1CC1; Dap = NC[C@H](N)C(=O)O; Sar = CNCC(=O)O

Holding throughout (assay type): cell-based
The target in assay [1] is T1, human Oxytocin (OTR) receptor (Homo sapiens, UniProt P30559).
T1 construct: expressed in transfected cells
T1 sequence (P30559 1-389): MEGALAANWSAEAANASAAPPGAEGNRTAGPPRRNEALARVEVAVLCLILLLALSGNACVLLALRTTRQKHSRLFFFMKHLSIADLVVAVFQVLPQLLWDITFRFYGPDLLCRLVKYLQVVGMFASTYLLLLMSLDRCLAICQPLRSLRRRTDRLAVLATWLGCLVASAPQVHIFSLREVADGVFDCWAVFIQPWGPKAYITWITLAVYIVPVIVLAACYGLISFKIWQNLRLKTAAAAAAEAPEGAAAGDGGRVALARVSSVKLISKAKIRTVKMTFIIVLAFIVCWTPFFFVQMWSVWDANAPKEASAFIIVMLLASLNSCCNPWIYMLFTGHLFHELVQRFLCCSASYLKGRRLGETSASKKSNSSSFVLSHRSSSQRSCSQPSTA
Briefly: Calcium flux assay (FLIPR), agonist mode, CHO cells expressing human oxytocin receptor. As to conditions: for EC50: CHO cells, human OTR, calcium flux FLIPR, read-out: hOT EC50; for Emax: CHO, maximum response normalized to endogenous full agonist = 100%, read-out: hOT efficacy (%). (A change in cytosolic calcium serves as a functional read-out for many receptors and channels.)

Another assay has as its target T2, human V1a receptor (Homo sapiens, UniProt P37288).
T2 construct: expressed in transfected cells
As to the kind of experiment: Calcium flux assay (FLIPR), agonist mode, CHO cells expressing human V1a receptor. As to conditions: read-out: hV1a EC50. From the text:
(§1) Chines Hamster Ovary (CHO) cells were transfected with expression plasmids encoding either the human V1a, the human Oxytocin (OTR) or the human V2 receptor, the later in combination with the chimeric Gqs5 G protein to redirect the signal to Calcium flux. Stable cells were cloned by limiting dilution to yield monoclonal cell lines expressing either human V1a, human V2+Gqs5 or human OTR receptors and selected based on functional responses detected on a fluorometric imaging plate reader (FLIPR) detecting Calcium flux in the cell after receptor activation. The stable cell lines were grown in F-12 K Nutrient Mixture (Kaighns Modification), containing 10% foetal bovine serum (FBS), 1% penicillin-streptomycin, 1% L-[…], 200 ug/ml Geneticin at 37° C. in a 10% CO2 incubator at 95% humidity.
(§2) On the afternoon before the assay, cells were plated at a density of 50,000 cells/well into black 96 well plates with clear bottoms to allow cell inspection and fluorescence measurements from the bottom of each well. The density of cells was sufficient to yield a confluent monolayer the next day. Hanks balanced salt solution, without phenol red, containing 20 mM HEPES (pH 7.3) and 2.5 mM probenecid (assay buffer) was prepared fresh for each experiment. Compound dilutions were made using a Beckman Biomek 2000 laboratory automation workstation, in assay buffer containing 1% DMSO. The dye-loading buffer consisted of a final concentration of 2 μM Fluo-4-AM (dissolved in DMSO and pluronic acid) in assay buffer. The existing culture media was removed from the wells and 100 μl of the dye-loading buffer was added to each well and incubated for approximately 60 min at 37° C. in a 5% CO2 incubator at 95% humidity. Once dye-loaded, the cells were washed thoroughly on an Embla cell washer with the assay buffer to remove any unincorporated dye. Exactly 100 μl assay buffer was left in each well.
(§3) Each 96 well plate containing dye-loaded cells was placed into the FLIPR machine and the laser intensity set to a suitable level to detect low basal fluorescence. To test compounds as agonists, 25 μl diluted compound was added to the plate 10 seconds into the fluorescent measurements and fluorescent response was recorded for 5 minutes. The fluorescence data was normalized to the endogenous full agonist dose-response set at 100% for the maximum response and 0% for the minimum. Each agonist concentration-response curve was constructed using a four parameter logistic equation with Microsoft Excel XLFit as follows: Y=Minimum+((Maximum−Minimum)/(1+10^(LogEC50-X)nH)), where y is the % normalized fluorescence, minimum is the minimum y, maximum is the maximum y, logEC50 is the log10 concentration which produces 50% of the maximum induced fluorescence, x is the log10 of the concentration of the agonist compound and H is the slope of the curve (the Hill Coefficient). The maximum value gives the efficacy of the agonist test compound in percentage. The concentration of agonist that produced a half-maximal response is represented by the EC50 value, the logarithm of which yielded the pEC50 value.

A further assay concerns the target T3, human V2 receptor (Homo sapiens, UniProt P30518).
T3 construct: expressed in transfected cells
Briefly: Calcium flux assay (FLIPR), agonist mode, CHO cells expressing human V2 receptor + Gqs5. As to conditions: for EC50: CHO cells, human V2 + chimeric Gqs5, calcium flux FLIPR, read-out: hV2 EC50; for Emax: CHO, read-out: hV2 efficacy (%); for Emax / hV2 efficacy (%): maximum response normalized to endogenous full agonist = 100%.
Source text: as §1, §2, §3

T3 sequence (P30518 whole entry): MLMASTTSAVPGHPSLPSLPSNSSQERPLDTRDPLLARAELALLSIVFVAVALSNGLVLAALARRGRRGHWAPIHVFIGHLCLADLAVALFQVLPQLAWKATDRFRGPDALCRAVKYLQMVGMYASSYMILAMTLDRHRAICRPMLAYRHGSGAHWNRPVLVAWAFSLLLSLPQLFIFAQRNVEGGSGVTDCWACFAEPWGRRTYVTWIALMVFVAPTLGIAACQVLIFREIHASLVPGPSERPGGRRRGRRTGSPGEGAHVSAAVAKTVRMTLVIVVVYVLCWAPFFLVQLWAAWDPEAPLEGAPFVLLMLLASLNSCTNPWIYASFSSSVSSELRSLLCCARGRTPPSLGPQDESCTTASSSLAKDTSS
T2 sequence (P37288 whole entry): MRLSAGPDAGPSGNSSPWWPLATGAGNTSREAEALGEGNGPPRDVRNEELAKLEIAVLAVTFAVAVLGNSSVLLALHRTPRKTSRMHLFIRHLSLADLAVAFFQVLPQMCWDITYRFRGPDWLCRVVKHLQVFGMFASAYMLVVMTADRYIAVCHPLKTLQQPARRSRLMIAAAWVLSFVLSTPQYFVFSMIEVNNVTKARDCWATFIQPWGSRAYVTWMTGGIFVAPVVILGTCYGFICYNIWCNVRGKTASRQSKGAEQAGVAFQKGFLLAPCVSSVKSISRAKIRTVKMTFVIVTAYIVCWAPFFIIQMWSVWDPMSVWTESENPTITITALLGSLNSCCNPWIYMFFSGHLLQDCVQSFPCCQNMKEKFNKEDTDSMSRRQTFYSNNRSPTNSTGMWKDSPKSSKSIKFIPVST

One may read the EC50 as the concentration needed to bring the measured effect to its halfway point. On to `CC[C@@H](C)[C@@H](NC(=O)CN(C)C(=O)[C@@H]1CNC(=O)CCC(=O)N[C@@H](Cc2ccc(O)cc2)C(=O)N[C@@H]([C@@H](C)CC)C(=O)N[C@@H](CCC(N)=O)C(=O)N[C@@H](CC(N)=O)C(=O)N1)C(=O)NCC(N)=O` [Example 28] (YIQN[Dap][Sar][dI]G-NH2; linker N-5 via Suc), for which the EC50 in assay [1] is 0.5 nM; on human V1a receptor, over 27000 nM; at human V2 receptor, 1380 nM. Moreover, the Emax in assay [1] turned out to be 109%; on human V2 receptor it was 119%.

Turning to `CC[C@H](C)[C@@H]1NC(=O)[C@H](Cc2ccc(O)cc2)NC(=O)CCC(=O)NC[C@@H](C(=O)N(C)CC(=O)N[C@@H](C(=O)NCC(N)=O)[C@H](C)O)NC(=O)[C@H](CC(N)=O)NC(=O)[C@H](CCC(N)=O)NC1=O` [Example 29] (YIQN[Dap][Sar][dT]G-NH2; linker N-5 via Suc), the EC50 in assay [1] is 0.6 nM; on human V1a receptor it was over 27000 nM; at human V2 receptor, 2070 nM. Moreover, the values for the Emax (in assay [1]; on human V2 receptor) were 109% and 113%, respectively.

Take `CC[C@H](C)[C@@H]1NC(=O)[C@H](Cc2ccc(O)cc2)NC(=O)CCC(=O)NC[C@@H](C(=O)N(C)CC(=O)N[C@@H](CC2CCCCC2)C(=O)NCC(N)=O)NC(=O)[C@H](CC(N)=O)NC(=O)[C@H](CCC(N)=O)NC1=O` [Example 31] (YIQN[Dap][Sar][Cha]G-NH2; linker N-5 via Suc): the concentration giving a half-maximal response (EC50) is 0.5 nM in assay [1], over 27000 nM on human V1a receptor and 199 nM at human V2 receptor. In addition, the Emax in assay [1] worked out at 107%. The “hV2 efficacy (%)” value on human V2 receptor was 126%.

Take `CC[C@H](C)[C@@H]1NC(=O)[C@H](Cc2ccc(O)cc2)NC(=O)CCC(=O)NC[C@@H](C(=O)N(C)CC(=O)N[C@H](C(=O)NCC(N)=O)c2ccccc2)NC(=O)[C@H](CC(N)=O)NC(=O)[C@H](CCC(N)=O)NC1=O` [Example 37] (YIQN[Dap][Sar][Phg]G-NH2; linker N-5 via Suc): the EC50 is 0.2 nM in assay [1], over 27000 nM on human V1a receptor and 53 nM at human V2 receptor. Further, in assay [1], the Emax was determined as 112%. For the same compound, on human V2 receptor, the “hV2 efficacy (%)” value is 121%.

On to `CC[C@H](C)[C@@H]1NC(=O)[C@H](Cc2ccc(O)cc2)NC(=O)CCC(=O)NC[C@@H](C(=O)N(CC(=O)N[C@@H](CC(C)C)C(=O)NCC(N)=O)C2CC2)NC(=O)[C@H](CC(N)=O)NC(=O)[C@H](CCC(N)=O)NC1=O` [Example 38] (YIQN[Dap][NcPrGly]LG-NH2; linker N-5 via Suc), for which, in assay [1], the half-maximal effective concentration (EC50) amounted to 0.38 nM and the Emax worked out at 126%. Moreover, the EC50 at human V1a receptor is over 27000 nM. Also, on human V2 receptor, the EC50 is 626 nM and the “hV2 efficacy (%)” value is recorded as 146%.
